Test results published in patent publication US8802866B2, “Pyridinylimidazolone derivatives for the inhibition of PI3 kinases” (Merck Patent GmbH, priority 2009, dated 2014).
Where two headings read alike, the source gives them in different places.

Columns and labels:
[1] = tested on: PI3K-dependent phosphorylation of PKB at Serin 473 in PC3 cells; test: Cellular PI3K assay (P-S473-PKB Luminex assay in PC3 cells); assay type: cell-based; conditions: Homo sapiens, PC-3, 0.5 h, read-out: IC50 (cell)
Method in brief: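 PC3 cells were exposed for 30 min under serum-free conditions to 7 concentrations of compound, then lysed. Lysates were captured overnight at 4°C on anti-total-PKB Luminex beads and detected with P-S473-PKB antibody plus PE-labelled secondary.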

PI3Kbeta = PI3Kbeta (Homo sapiens, UniProt P42338); test: Biochemical PI3Kbeta assay (neomycin SPA, lipid phosphorylation); conditions: human recombinant GST-PI3K
Sequence of PI3Kbeta (P42338 whole entry): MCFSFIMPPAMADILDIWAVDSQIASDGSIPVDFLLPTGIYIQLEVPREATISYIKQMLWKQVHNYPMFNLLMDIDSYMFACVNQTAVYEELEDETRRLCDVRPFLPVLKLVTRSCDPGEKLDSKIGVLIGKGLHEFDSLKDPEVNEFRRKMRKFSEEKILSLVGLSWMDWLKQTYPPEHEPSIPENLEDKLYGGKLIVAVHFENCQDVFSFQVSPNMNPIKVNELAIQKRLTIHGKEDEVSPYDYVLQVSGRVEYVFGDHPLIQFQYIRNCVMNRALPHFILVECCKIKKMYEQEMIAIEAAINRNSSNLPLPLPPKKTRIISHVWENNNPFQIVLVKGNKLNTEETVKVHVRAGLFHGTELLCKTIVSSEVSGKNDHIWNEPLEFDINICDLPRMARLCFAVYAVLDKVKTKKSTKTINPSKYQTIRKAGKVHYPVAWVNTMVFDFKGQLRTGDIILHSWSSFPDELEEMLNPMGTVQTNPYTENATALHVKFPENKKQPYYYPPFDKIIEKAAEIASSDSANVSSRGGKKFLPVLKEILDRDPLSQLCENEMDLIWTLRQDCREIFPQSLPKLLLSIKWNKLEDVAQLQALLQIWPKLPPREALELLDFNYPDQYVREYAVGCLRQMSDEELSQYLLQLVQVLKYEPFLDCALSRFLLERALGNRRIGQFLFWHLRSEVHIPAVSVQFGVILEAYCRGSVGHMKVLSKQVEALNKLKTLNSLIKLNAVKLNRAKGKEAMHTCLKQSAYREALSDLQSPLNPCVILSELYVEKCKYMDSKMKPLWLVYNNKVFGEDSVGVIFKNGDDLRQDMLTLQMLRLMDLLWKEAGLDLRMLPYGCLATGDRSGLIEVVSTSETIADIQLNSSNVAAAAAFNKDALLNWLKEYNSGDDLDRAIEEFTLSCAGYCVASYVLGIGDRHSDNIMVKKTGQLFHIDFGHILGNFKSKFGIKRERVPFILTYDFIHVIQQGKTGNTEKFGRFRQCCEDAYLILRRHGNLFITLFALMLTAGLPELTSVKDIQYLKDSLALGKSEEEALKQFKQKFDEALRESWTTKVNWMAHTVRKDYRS
Sequence of PI3Kbeta (P27986 whole entry partner): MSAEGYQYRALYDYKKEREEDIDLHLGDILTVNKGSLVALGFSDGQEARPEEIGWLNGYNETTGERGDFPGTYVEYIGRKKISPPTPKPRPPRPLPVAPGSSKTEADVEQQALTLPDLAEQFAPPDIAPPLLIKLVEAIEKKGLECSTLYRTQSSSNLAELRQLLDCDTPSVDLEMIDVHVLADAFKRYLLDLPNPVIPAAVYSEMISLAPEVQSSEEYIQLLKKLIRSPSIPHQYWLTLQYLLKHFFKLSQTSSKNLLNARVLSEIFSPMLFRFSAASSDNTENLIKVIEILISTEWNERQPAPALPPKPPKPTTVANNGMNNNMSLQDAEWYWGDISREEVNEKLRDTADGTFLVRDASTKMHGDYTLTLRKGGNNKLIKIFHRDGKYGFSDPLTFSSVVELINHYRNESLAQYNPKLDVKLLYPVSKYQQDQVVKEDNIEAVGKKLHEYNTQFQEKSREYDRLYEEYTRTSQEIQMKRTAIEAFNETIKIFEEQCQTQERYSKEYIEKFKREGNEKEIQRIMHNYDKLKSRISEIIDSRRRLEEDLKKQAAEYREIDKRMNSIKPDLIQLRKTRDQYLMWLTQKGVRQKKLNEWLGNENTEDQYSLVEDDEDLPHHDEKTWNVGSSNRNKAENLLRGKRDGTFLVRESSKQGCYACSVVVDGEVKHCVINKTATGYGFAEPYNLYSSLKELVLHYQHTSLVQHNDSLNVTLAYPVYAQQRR
Method in brief: (§1)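 Recombinant PI3K incubated with lipid substrate and radioactive ATP for 120 min at room temperature with gentle stirring, then stopped with neomycin-coated PVT-SPA beads, ATP 60 mM and EDTA 6.2 mM in PBS. After 60 min bead binding and centrifugation, radioactive Ptdlns(3)P counted by scintillation.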

DNA-PK protein complex = DNA-PK protein complex (Homo sapiens, UniProt P78527); test: Biochemical DNA-PK assay (FlashPlate)
Method in brief: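 Streptavidin-coated FlashPlate radiometric kinase assay, stopped with 200 mM EDTA, then wells washed with 0.9% NaCl and bound radioactivity counted. Blank (non-specific reaction) defined with a proprietary kinase inhibitor at 10 μM.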

PI3Kalpha = PI3Kalpha (Homo sapiens, UniProt P42336); test: Biochemical PI3Kalpha assay (neomycin SPA, lipid phosphorylation); conditions: human recombinant GST-PI3K
Sequence of PI3Kalpha (P42336 whole entry): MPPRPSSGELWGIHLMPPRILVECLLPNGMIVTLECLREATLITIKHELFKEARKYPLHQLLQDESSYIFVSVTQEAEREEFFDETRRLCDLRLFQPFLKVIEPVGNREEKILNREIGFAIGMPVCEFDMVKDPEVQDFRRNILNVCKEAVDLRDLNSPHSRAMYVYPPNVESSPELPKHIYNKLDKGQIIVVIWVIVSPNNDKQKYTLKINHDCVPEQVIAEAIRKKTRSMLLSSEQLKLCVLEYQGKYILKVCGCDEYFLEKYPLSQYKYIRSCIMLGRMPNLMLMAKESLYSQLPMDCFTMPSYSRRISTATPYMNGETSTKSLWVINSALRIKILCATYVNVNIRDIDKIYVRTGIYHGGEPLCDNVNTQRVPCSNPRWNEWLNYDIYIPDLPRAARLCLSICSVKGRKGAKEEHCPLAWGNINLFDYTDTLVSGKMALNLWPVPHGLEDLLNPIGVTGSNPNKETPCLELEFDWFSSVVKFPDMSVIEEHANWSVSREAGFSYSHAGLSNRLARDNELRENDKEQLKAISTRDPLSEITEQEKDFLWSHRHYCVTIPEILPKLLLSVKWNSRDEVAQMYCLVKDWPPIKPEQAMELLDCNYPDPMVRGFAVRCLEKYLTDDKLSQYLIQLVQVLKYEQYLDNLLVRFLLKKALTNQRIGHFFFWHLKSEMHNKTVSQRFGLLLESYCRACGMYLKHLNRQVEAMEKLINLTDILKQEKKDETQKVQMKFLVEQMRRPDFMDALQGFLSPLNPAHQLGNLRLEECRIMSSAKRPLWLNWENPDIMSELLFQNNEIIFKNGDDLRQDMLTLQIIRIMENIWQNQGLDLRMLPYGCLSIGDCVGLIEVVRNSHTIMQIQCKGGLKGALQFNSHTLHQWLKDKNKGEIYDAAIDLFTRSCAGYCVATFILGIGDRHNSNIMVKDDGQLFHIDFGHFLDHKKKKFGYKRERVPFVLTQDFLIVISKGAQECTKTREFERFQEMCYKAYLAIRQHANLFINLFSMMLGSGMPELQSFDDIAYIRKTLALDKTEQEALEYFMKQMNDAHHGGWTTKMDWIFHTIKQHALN
Sequence of PI3Kalpha (P27986 whole entry partner): as the sequence (P27986 whole entry partner) above
Method in brief: as §1

[2] = target: recombinant PI3Kalpha (shortened form of the catalytic subunit) (Homo sapiens, UniProt P42336); test: BIACORE PI3K binding assay (SPR); conditions: 25° C.
Sequence of recombinant PI3Kalpha (shortened form of the catalytic subunit) (P42336 151-1068 limits assumed): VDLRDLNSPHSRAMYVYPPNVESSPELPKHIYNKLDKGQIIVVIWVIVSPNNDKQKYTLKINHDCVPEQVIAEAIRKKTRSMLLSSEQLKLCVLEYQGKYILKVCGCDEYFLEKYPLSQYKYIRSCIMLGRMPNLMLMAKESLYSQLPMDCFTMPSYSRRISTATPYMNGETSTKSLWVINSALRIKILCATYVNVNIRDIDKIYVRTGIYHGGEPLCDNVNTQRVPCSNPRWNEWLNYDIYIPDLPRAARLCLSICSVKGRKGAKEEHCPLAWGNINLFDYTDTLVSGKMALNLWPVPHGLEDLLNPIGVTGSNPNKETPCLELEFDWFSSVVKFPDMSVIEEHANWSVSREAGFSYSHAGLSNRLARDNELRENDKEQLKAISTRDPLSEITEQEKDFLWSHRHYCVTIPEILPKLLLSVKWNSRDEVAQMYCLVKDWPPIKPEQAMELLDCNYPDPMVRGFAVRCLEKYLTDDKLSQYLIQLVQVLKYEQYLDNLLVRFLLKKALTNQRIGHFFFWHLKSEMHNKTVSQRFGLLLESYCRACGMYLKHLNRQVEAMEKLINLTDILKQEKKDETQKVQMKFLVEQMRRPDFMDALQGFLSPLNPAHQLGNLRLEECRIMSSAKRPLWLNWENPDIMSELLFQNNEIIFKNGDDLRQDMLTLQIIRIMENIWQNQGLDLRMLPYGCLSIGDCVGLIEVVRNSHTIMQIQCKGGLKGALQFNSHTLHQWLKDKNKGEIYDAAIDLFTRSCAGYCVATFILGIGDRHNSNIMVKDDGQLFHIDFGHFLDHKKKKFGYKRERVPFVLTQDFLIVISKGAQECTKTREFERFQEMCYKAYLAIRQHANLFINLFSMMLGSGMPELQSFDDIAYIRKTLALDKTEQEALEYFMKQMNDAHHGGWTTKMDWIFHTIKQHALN
Method in brief: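 Contact time was 180 s and dissociation 240 s, in HEPES pH 7.40 buffer with 2% DMSO. Solvent-corrected, double-referenced data were fitted to a 1:1 model with mass transport.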

mTOR = target: T1, mTOR (Homo sapiens, UniProt P42345); test: Biochemical mTOR assay (Millipore mTOR assay kit)
T1 construct: purchased Millipore 14-770
T1 sequence (P42345 1362-2549 limits assumed): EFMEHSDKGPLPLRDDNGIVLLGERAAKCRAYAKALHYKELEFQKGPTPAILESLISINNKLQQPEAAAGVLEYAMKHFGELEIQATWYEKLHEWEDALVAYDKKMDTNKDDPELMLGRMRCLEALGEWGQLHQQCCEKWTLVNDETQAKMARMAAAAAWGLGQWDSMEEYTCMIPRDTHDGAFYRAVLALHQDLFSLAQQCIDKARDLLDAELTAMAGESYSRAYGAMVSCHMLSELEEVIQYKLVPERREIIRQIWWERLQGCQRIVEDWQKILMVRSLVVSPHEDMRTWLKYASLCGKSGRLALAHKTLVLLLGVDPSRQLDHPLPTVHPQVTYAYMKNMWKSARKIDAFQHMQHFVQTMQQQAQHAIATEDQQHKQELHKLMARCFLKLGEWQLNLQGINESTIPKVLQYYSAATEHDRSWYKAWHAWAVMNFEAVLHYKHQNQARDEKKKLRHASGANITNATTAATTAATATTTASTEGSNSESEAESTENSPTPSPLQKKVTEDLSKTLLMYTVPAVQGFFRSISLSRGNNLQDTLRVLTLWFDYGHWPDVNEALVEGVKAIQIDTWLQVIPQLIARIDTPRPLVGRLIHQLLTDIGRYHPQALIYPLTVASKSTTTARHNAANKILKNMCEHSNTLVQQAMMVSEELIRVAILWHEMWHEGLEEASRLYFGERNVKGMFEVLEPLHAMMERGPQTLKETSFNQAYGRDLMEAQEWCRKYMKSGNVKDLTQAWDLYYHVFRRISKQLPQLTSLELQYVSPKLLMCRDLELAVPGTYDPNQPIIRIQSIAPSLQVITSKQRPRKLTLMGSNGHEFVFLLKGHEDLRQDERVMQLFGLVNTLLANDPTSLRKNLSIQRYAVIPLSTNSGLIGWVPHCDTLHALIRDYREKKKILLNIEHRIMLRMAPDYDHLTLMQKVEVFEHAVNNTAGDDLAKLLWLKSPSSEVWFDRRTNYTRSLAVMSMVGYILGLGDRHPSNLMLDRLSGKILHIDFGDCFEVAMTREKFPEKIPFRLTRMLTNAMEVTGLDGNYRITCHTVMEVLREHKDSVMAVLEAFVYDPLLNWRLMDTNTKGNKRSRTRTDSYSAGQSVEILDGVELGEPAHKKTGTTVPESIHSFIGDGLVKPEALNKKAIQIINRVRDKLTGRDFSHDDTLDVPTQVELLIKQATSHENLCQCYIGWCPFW
Experimental: The biochemical mTOR assay was carried out by the method described in the Millipore mTOR assay kit (catalogue number 14-770).

[3] = PC3 cells, 30 min, serum-free, P-S473-PKB

| SMILES | IC50 [1, 3] [nM] | melting point [°C] | IC50 (PI3Kbeta) [nM] | IC50 (DNA-PK protein complex) [nM] | IC50 (PI3Kalpha) [nM] | Kd [2] [nM] | IC50 (mTOR) [nM] | IC50 [1] [nM] |
| --- | --- | --- | --- | --- | --- | --- | --- | --- |
| COc1cc(-n2c(-c3cc(-c4cnc5[nH]ccc5c4)ccn3)cn(C)c2=O)ccc1Cl [Example A58, 3-(4-Chloro-3-methoxyphenyl)-1-methyl-4-[4-(1H-pyrrolo[2,3-b]pyridin-5-yl)-pyridin-2-yl]-1,3-dihydroimidazol-2-one] | 100 to 10000 | 223 | 100 to 10000 | 100 to 10000 | 100 to 10000 | 100 to 10000 | – | – |
| Cn1cc(-c2cc(-c3cnc4ccccc4c3)ccn2)n(-c2ccc(C(C)(C)CN)cc2)c1=O [Example A30, 3-[4-(2-Amino-1,1-dimethylethyl)phenyl]-1-methyl-4-(4-quinolin-3-ylpyridin-2-yl)-1,3-dihydroimidazol-2-one] | > 10000 | 132 | > 10000 | 100 to 10000 | 100 to 10000 | – | – | – |
| Cn1cc(-c2cc(-c3ccncc3)ccn2)n(-c2ccc(C(C)(C)C#N)cc2)c1=O [Example A11, 2-[4-(5-[4,4′]Bipyridinyl-2-yl-3-methyl-2-oxo-2,3-dihydroimidazol-1-yl)phenyl]-2-methylpropionitrile] | > 10000 | 226 | > 10000 | 0.1 to 100 | 100 to 10000 | – | – | – |
| Cn1cc(-c2cc(-c3cnc4c(c3)CCC(=O)N4)ccn2)n(-c2ccc(C(C)(C)C#N)cc2)c1=O [Example A45, 2-Methyl-2-(4-{3-methyl-2-oxo-5-[4-(7-oxo-5,6,7,8-tetrahydro-[1,8]naphthyridin-3-yl)pyridin-2-yl]-2,3-dihydroimidazol-1-yl}phenyl)propionitrile] | 100 to 10000 | 284 | 100 to 10000 | 0.1 to 100 | 0.1 to 100 | – | – | – |
| COc1ccc(-c2ccnc(-c3cn(C)c(=O)n3-c3ccc(N4CCNCC4)c(C(F)(F)F)c3)c2)cn1 [Example A20, 4-(6-Methoxy-[3,4′]bipyridinyl-2′-yl)-1-methyl-3-(4-piperazin-1-yl-3-trifluoro-methylphenyl)-1,3-dihydroimidazol-2-one] | 100 to 10000 | – | 100 to 10000 | 0.1 to 100 | 100 to 10000 | 100 to 10000 | 100 to 10000 | – |
| Cn1cc(-c2cc(-c3ccc4ncncc4c3)ccn2)n(-c2ccc(C(C)(C)C#N)cc2)c1=O [Example A91, 2-Methyl-2-{4-[3-methyl-2-oxo-5-(4-quinazolin-6-ylpyridin-2-yl)-2,3-dihydro-imidazol-1-yl]phenyl}propionitrile] | > 10000 | – | > 10000 | 0.1 to 100 | 100 to 10000 | 100 to 10000 | 100 to 10000 | – |
| Cn1cc(-c2cc(-c3cnc4ccccc4c3)ccn2)n(-c2ccc(C(C)(C)C(=O)O)cc2)c1=O [Example A22, 2-Methyl-2-{4-[3-methyl-2-oxo-5-(4-quinolin-3-ylpyridin-2-yl)-2,3-dihydroimidazol-1-yl]phenyl}propionic acid] | > 10000 | – | > 10000 | 100 to 10000 | 100 to 10000 | 100 to 10000 | 100 to 10000 | – |
| Cn1cc(-c2cc(-c3cnc4[nH]ccc4c3)ccn2)n(-c2cc(F)cc(C#N)c2)c1=O [Example A96, 3-Fluoro-5-{3-methyl-2-oxo-5-[4-(1H-pyrrolo[2,3-b]pyridin-5-yl)pyridin-2-yl]-2,3-dihydroimidazol-1-yl}benzonitrile] | 100 to 10000 | – | 100 to 10000 | 0.1 to 100 | 100 to 10000 | 100 to 10000 | 100 to 10000 | – |
| COc1cccc(-c2ccnc(-c3cn(C)c(=O)n3-c3ccc(C(C)(C)C#N)cc3)c2)c1 [Example A3, 2-(4-{5-[4-(3-Methoxyphenyl)pyridin-2-yl]-3-methyl-2-oxo-2,3-dihydroimidazol-1-yl}phenyl)-2-methylpropionitrile] | > 10000 | – | > 10000 | 0.1 to 100 | 100 to 10000 | 100 to 10000 | > 10000 | – |
| Cn1cc(-c2cc(-c3cnc4[nH]cc(F)c4c3)ccn2)n(-c2ccc(F)c(C(F)(F)F)c2)c1=O [Example A105, 4-[4-(3-Fluoro-1H-pyrrolo[2,3-b]pyridin-5-yl)pyridin-2-yl]-3-(4-fluoro-3-trifluoro-methylphenyl)-1-methyl-1,3-dihydroimidazol-2-one] | 100 to 10000 | 268 | – | 100 to 10000 | – | – | – | – |
| Cn1cc(-c2cc(-c3cnc4[nH]c(C(F)(F)F)cc4c3)ccn2)n(-c2ccc(C(C)(C)C#N)cc2)c1=O [Example A27, 2-Methyl-2-(4-{3-methyl-2-oxo-5-[4-(2-trifluoromethyl-1H-pyrrolo[2,3-b]pyridin-5-yl)pyridin-2-yl]-2,3-dihydroimidazol-1-yl}phenyl)propionitrile] | 100 to 10000 | – | > 10000 | 0.1 to 100 | 100 to 10000 | 100 to 10000 | 0.1 to 100 | – |
| Cn1cc(-c2cc(-c3cnc4[nH]c(C(C)(C)C)cc4c3)ccn2)n(-c2ccc(C(C)(C)C#N)cc2)c1=O [Example A92, 2-(4-{5-[4-(2-tert-Butyl-1H-pyrrolo[2,3-b]pyridin-5-yl)pyridin-2-yl]-3-methyl-2-oxo-2,3-dihydroimidazol-1-yl}phenyl)-2-methylpropionitrile] | > 10000 | – | 100 to 10000 | 0.1 to 100 | 100 to 10000 | 100 to 10000 | 100 to 10000 | – |
| COc1cccc(-n2c(-c3cc(-c4cnc5[nH]ccc5c4)ccn3)cn(C)c2=O)c1 [Example A73, 3-(3-Methoxyphenyl)-1-methyl-4-[4-(1H-pyrrolo[2,3-b]pyridin-5-yl)pyridin-2-yl]-1,3-dihydroimidazol-2-one] | 100 to 10000 | – | 100 to 10000 | 0.1 to 100 | 100 to 10000 | 0.1 to 100 | 0.1 to 100 | – |
| CN1CCN(c2ccc(-n3c(-c4cc(-c5cnc6[nH]c(C(F)(F)F)cc6c5)ccn4)cn(C)c3=O)cc2C(F)(F)F)CC1 [Example A87, 1-Methyl-3-[4-(4-methylpiperazin-1-yl)-3-trifluoromethylphenyl]-4-[4-(2-trifluoro-methyl-1H-pyrrolo[2,3-b]pyridin-5-yl)pyridin-2-yl]-1,3-dihydroimidazol-2-one] | 100 to 10000 | – | 100 to 10000 | 0.1 to 100 | 100 to 10000 | 100 to 10000 | 100 to 10000 | – |
| Cc1cc2cc(-c3ccnc(-c4cn(C)c(=O)n4-c4ccc(C(C)(C)C#N)cc4)c3)cnc2[nH]1 [Example A85, 2-Methyl-2-(4-{3-methyl-5-[4-(2-methyl-1H-pyrrolo[2,3-b]pyridin-5-yl)pyridin-2-yl]-2-oxo-2,3-dihydroimidazol-1-yl}phenyl)propionitrile] | – | – | 100 to 10000 | 0.1 to 100 | 100 to 10000 | 0.1 to 100 | 100 to 10000 | 100 to 10000 |
| CN1CCN(c2ccc(-n3c(-c4cc(-c5cnc6[nH]ccc6c5)ccn4)cn(C)c3=O)cc2)CC1 [Example A50, 1-Methyl-3-[4-(4-methylpiperazin-1-yl)phenyl]-4-[4-(1H-pyrrolo[2,3-b]pyridin-5-yl)pyridin-2-yl]-1,3-dihydroimidazol-2-one] | 100 to 10000 | – | 100 to 10000 | 0.1 to 100 | 100 to 10000 | 0.1 to 100 | 100 to 10000 | – |
